# Read-outs that look alike come from different tables or passages of the source.
# How the values were obtained:
# Experiment in all cases: MIC (Minimum Inhibitory Concentration)
# Type in all cases: cell-based
# [1] = tested on: Candida albicans
# Excerpt: (§1) In addition they may be used for combatting plant diseases, in particular as fungicides. A list of MIC (Minimum Inhibitory Concentration) values for a number of microorganisms is listed herebelow. The figures in the column headings refer to the compounds prepared according to the experimental examples in comparison with the spectrum of 1-[2-(2,4-dichlorophenyl)-2-{(2,4-dichlorophenyl)-methoxy} -ethyl7-1H-imidazole (better known under the name of miconazole, c.f. Merck Index 9th Ed. page 6047) or natamycin (pimaricin, c.f. Merck Index 9th Ed. page 7233).
# [2] = tested on: Streptococcus haemolyticus; details: read-out: MIC values
# Excerpt: as §1
# [3] = tested on: Pasteurella multocida; details: read-out: MIC values
# Excerpt: as §1
# [4] = tested on: Trichophyton equinum
# Excerpt: as §1
# [5] = tested on: Trichophyton rubrum
# Excerpt: as §1
# [6] = tested on: Trichophyton schoenleinii; details: read-out: MIC values
# Excerpt: as §1
# [7] = tested on: Trichophyton mentagrophytus
# Excerpt: as §1
# [8] = tested on: Trichophyton quickeaneum; details: read-out: MIC values
# Excerpt: as §1
# [9] = tested on: Trichophyton violoceum; details: read-out: MIC values
# Excerpt: as §1
# [10] = tested on: Trichophyton verrucosum
# Excerpt: as §1
# [11] = tested on: Trichophyton tonsurans; details: Trichophyton tonsurans 561-50; read-out: MIC values
# Excerpt: as §1
# [12] = read-out: MIC values, Candida albicans A 7
# [13] = read-out: MIC values, Candida albicans A 3140
# [14] = read-out: MIC values, Candida albicans A 3141
# [15] = read-out: MIC values, Candida albicans A 3142
# [16] = read-out: MIC values, Candida albicans A 3143
# [17] = read-out: MIC values, Candida albicans A 3144
# [18] = read-out: MIC values, Candida albicans A 3145
# [19] = read-out: MIC values, Candida albicans A 3165
# [20] = read-out: MIC values, Candida albicans A 3166
# [21] = read-out: MIC values, Candida albicans A 3167
# [22] = read-out: MIC values, Candida albicans A 3168
# [23] = read-out: MIC values, Candida albicans A 3169
# [24] = read-out: MIC values, Candida albicans A 3171
# [25] = read-out: MIC values, Candida albicans A 3184
# [26] = read-out: MIC values, Candida albicans A 3190
# [27] = read-out: MIC values, Candida albicans A 3191
# [28] = read-out: MIC values, Candida albicans A 3192
# [29] = read-out: MIC values, Candida albicans A 3194
# [30] = read-out: MIC values, Candida albicans A 3196
# [31] = Candida albicans A 7, read-out: MIC values
# [32] = Candida albicans A 3140, read-out: MIC values
# [33] = Candida albicans A 3141, read-out: MIC values
# [34] = Candida albicans A 3142, read-out: MIC values
# [35] = Candida albicans A 3143, read-out: MIC values
# [36] = Candida albicans A 3144, read-out: MIC values
# [37] = Candida albicans A 3145, read-out: MIC values
# [38] = Candida albicans A 3165, read-out: MIC values
# [39] = Candida albicans A 3166, read-out: MIC values
# [40] = Candida albicans A 3167, read-out: MIC values
# [41] = Candida albicans A 3168, read-out: MIC values
# [42] = Candida albicans A 3169, read-out: MIC values
# [43] = Candida albicans A 3171, read-out: MIC values
# [44] = Candida albicans A 3184, read-out: MIC values
# [45] = Candida albicans A 3190, read-out: MIC values
# [46] = Candida albicans A 3191, read-out: MIC values
# [47] = Candida albicans A 3192, read-out: MIC values
# [48] = Candida albicans A 3194, read-out: MIC values
# [49] = Candida albicans A 3196, read-out: MIC values
# [50] = Streptococcus haemolyticus A 1088
# [51] = Trichophyton equinum 182-76, read-out: MIC values
# [52] = Trichophyton equinum 856-71, read-out: MIC values
# [53] = Trichophyton rubrum 218-65, read-out: MIC values
# [54] = Trichophyton rubrum 494-62, read-out: MIC values
# [55] = Trichophyton rubrum A 810, read-out: MIC values
# [56] = Trichophyton schoenleinii 435-63
# [57] = Trichophyton mentagrophytus 367-68, read-out: MIC values
# [58] = Trichophyton mentagrophytus 421-67, read-out: MIC values
# [59] = Trichophyton mentagrophytus A 3252, read-out: MIC values
# [60] = Trichophyton mentagrophytus R 177, read-out: MIC values
# [61] = Trichophyton mentagrophytus R 178, read-out: MIC values
# [62] = Trichophyton mentagrophytus RRL 305, read-out: MIC values
# [63] = Trichophyton quickeaneum A 2040
compound,measurement,setting,value
"[C-]#[N+]C(=C1CCCCCC1)S(=O)(=O)c1ccc(C)cc1 [Example 18a, a-cycloheptylidene-a-(4-toluenesulphonyl)-methylisocyanide]",MIC,[1]; [12],1.5 µg/mL
same,MIC,[1]; [13],1.5 µg/mL
same,MIC,[1]; [14],3 µg/mL
same,MIC,[1]; [15],1.5 µg/mL
same,MIC,[1]; [16],1.5 µg/mL
same,MIC,[1]; [17],3 µg/mL
same,MIC,[1]; [18],3 µg/mL
same,MIC,[1]; [19],1.5 µg/mL
same,MIC,[1]; [20],3 µg/mL
same,MIC,[1]; [21],0.75 µg/mL
same,MIC,[1]; [22],0.75 µg/mL
same,MIC,[1]; [23],3 µg/mL
same,MIC,[1]; [24],1.5 µg/mL
same,MIC,[1]; [25],3 µg/mL
same,MIC,[1]; [26],3 µg/mL
same,MIC,[1]; [27],3 µg/mL
same,MIC,[1]; [28],1.5 µg/mL
same,MIC,[1]; [29],1.5 µg/mL
same,MIC,[1]; [30],3 µg/mL
same,MIC,[2]; Streptococcus,10 µg/mL
same,MIC,[3]; Pasteurella multocida,20 µg/mL
"[C-]#[N+]C(C1=CCCCCC1)S(=O)(=O)c1ccc(C)cc1 (stereo not shown) [Example 18b, a-(cyclohepten-1-yl)-a-(4-toluenesulphonyl)-methylisocyanide]",MIC,[1]; [12],6 µg/mL
same,MIC,[1]; [13],6 µg/mL
same,MIC,[1]; [14],12.5 µg/mL
same,MIC,[1]; [15],12.5 µg/mL
same,MIC,[1]; [16],12.5 µg/mL
same,MIC,[1]; [17],12.5 µg/mL
same,MIC,[1]; [18],6 µg/mL
same,MIC,[1]; [19],12.5 µg/mL
same,MIC,[1]; [20],12.5 µg/mL
same,MIC,[1]; [21],12.5 µg/mL
same,MIC,[1]; [22],6 µg/mL
same,MIC,[1]; [23],12.5 µg/mL
same,MIC,[1]; [24],12.5 µg/mL
same,MIC,[1]; [25],12.5 µg/mL
same,MIC,[1]; [26],12.5 µg/mL
same,MIC,[1]; [27],12.5 µg/mL
same,MIC,[1]; [28],12.5 µg/mL
same,MIC,[1]; [29],25 µg/mL
same,MIC,[1]; [30],12.5 µg/mL
same,MIC,[2]; Streptococcus,25 µg/mL
same,MIC,[3]; Pasteurella multocida,50 µg/mL
same,MIC,"[4]; read-out: MIC values, Trichophyton equinum 182-76",> 100 µg/mL
same,MIC,"[4]; read-out: MIC values, Trichophyton equinum 441-51",< 0.05 µg/mL
same,MIC,"[4]; read-out: MIC values, Trichophyton equinum 856-71",100 µg/mL
same,MIC,"[5]; read-out: MIC values, Trichophyton rubrum 218-65",100 µg/mL
same,MIC,"[5]; read-out: MIC values, Trichophyton rubrum 494-62",> 100 µg/mL
same,MIC,[6]; Trichophyton schoenleinii,6 µg/mL
same,MIC,"[7]; read-out: MIC values, Trichophyton mentagrophytus 367-68",25 µg/mL
same,MIC,"[7]; read-out: MIC values, Trichophyton mentagrophytus 421-67",> 100 µg/mL
same,MIC,"[7]; read-out: MIC values, Trichophyton mentagrophytus A 3252",> 100 µg/mL
same,MIC,"[7]; read-out: MIC values, Trichophyton mentagrophytus R 177",> 100 µg/mL
same,MIC,"[7]; read-out: MIC values, Trichophyton mentagrophytus R 178",> 100 µg/mL
same,MIC,"[7]; read-out: MIC values, Trichophyton mentagrophytus RRL 305",> 100 µg/mL
same,MIC,[8]; Trichophyton,25 µg/mL
same,MIC,[9]; Trichophyton,6 µg/mL
same,MIC,"[10]; read-out: MIC values, Trichophyton verrucosum 134-66",3 µg/mL
same,MIC,"[10]; read-out: MIC values, Trichophyton verrucosum A 2922",12.5 µg/mL
"[C-]#[N+]C(=C(CCCCC)CCCCC)S(=O)(=O)c1ccc(C)cc1 [Example 26, 1-isocyana-2-pentyl-1-(4-toluenesulphonyl)-1-heptene]",MIC,[1]; [31],50 µg/mL
same,MIC,[1]; [32],6 µg/mL
same,MIC,[1]; [33],25 µg/mL
same,MIC,[1]; [34],25 µg/mL
same,MIC,[1]; [35],50 µg/mL
same,MIC,[1]; [36],100 µg/mL
same,MIC,[1]; [37],25 µg/mL
same,MIC,[1]; [38],50 µg/mL
same,MIC,[1]; [39],25 µg/mL
same,MIC,[1]; [40],> 100 µg/mL
same,MIC,[1]; [41],100 µg/mL
same,MIC,[1]; [42],25 µg/mL
same,MIC,[1]; [43],50 µg/mL
same,MIC,[1]; [44],50 µg/mL
same,MIC,[1]; [45],50 µg/mL
same,MIC,[1]; [46],> 100 µg/mL
same,MIC,[1]; [47],50 µg/mL
same,MIC,[1]; [48],50 µg/mL
same,MIC,[1]; [49],50 µg/mL
same,MIC,[2]; [50],> 100 µg/mL
same,MIC,[3]; Pasteurella multocida A 723,100 µg/mL
same,MIC,[4]; [51],> 100 µg/mL
same,MIC,[4]; [52],50 µg/mL
same,MIC,[5]; [53],100 µg/mL
same,MIC,[5]; [54],100 µg/mL
same,MIC,[5]; [55],50 µg/mL
same,MIC,[6]; [56],100 µg/mL
same,MIC,[11],100 µg/mL
same,MIC,[7]; [57],> 100 µg/mL
same,MIC,[7]; [58],100 µg/mL
same,MIC,[7]; [59],> 100 µg/mL
same,MIC,[7]; [60],> 100 µg/mL
same,MIC,[7]; [61],> 100 µg/mL
same,MIC,[7]; [62],> 100 µg/mL
same,MIC,[8]; [63],> 100 µg/mL
same,MIC,[9]; Trichophyton violoceum 442-62,100 µg/mL
"[C-]#[N+]C(C1=CCSCC1)S(=O)(=O)c1ccc(C)cc1 (stereo not shown) [Example 16b, a-(3,4-dehydrothian-4-yl)-a-(4-toluenesulphonyl)-methylisocyanide]",MIC,[1]; [31],3 µg/mL
same,MIC,[1]; [32],3 µg/mL
same,MIC,[1]; [33],3 µg/mL
same,MIC,[1]; [34],3 µg/mL
same,MIC,[1]; [35],3 µg/mL
same,MIC,[1]; [36],6 µg/mL
same,MIC,[1]; [37],6 µg/mL
same,MIC,[1]; [38],3 µg/mL
same,MIC,[1]; [39],3 µg/mL
same,MIC,[1]; [40],3 µg/mL
same,MIC,[1]; [41],3 µg/mL
same,MIC,[1]; [42],3 µg/mL
same,MIC,[1]; [43],3 µg/mL
same,MIC,[1]; [44],3 µg/mL
same,MIC,[1]; [45],3 µg/mL
same,MIC,[1]; [46],6 µg/mL
same,MIC,[1]; [47],3 µg/mL
same,MIC,[1]; [48],3 µg/mL
same,MIC,[1]; [49],3 µg/mL
same,MIC,[2]; [50],50 µg/mL
same,MIC,[3]; Pasteurella multocida A 723,3 µg/mL
same,MIC,[4]; [51],6 µg/mL
same,MIC,[4]; [52],12.5 µg/mL
same,MIC,[5]; [53],1.5 µg/mL
same,MIC,[5]; [54],12.5 µg/mL
same,MIC,[5]; [55],1.5 µg/mL
same,MIC,[6]; [56],1.5 µg/mL
same,MIC,[11],0.8 µg/mL
same,MIC,[7]; [57],6 µg/mL
same,MIC,[7]; [58],6 µg/mL
same,MIC,[7]; [59],12.5 µg/mL
same,MIC,[7]; [60],6 µg/mL
same,MIC,[7]; [61],12.5 µg/mL
same,MIC,[7]; [62],12.5 µg/mL
same,MIC,[8]; [63],6 µg/mL
same,MIC,[9]; Trichophyton violoceum 442-62,3 µg/mL

# From patent EP0007672A1, “Isocyanoalkenes, process and useful intermediates for their preparation, pharmaceutical and fungicidal preparations containing those isocyanoalkenes and the use of the fungicidal preparations in agriculture” (GIST-BROCADES N.V., priority 1978, dated 1980)
